What was measured:
[1] = tested on: MDA-MB231 breast cancer cells; experiment: Cell viability of MDA-MB231 breast cancer cells exposed to Coenzyme Q10 alone or with fatty acid metabolism inhibitors; type: cell-based, human; settings: for Sensitivity of cells to Coenzyme Q10 when treated in combination (shift of Coenzyme Q10 dose-response curve): MDA-MB231, co-treatment with named agent
Description: (§1) Cell viability was assessed in MDA-MB231 and SkBr-3 breast cancer cells exposed to Coenzyme Q10 alone or in combination with the fatty acid metabolism inhibitors C75, etomoxir, and trimetazidine, as well as a more pleiotropic fatty acid metabolism modulator, metformin. […] Metformin is used clinically as an anti-diabetic agent to suppress glucose production by the liver; however, the mechanism of action remains incompletely understood.
(§2) Coenzyme Q10 was applied to the cells in a 4% Coenzyme Q10 nanosuspension formulation (as described in WO 2011/112900, the entire contents of which are expressly incorporated herein by reference) comprising a phosphatidylcholine (e.g., dimyristoylphosphatidyl choline (DMPC)).

[2] = tested on: MIA PaCa-2 pancreatic cancer cells; experiment: Cell viability of MIA PaCa-2 pancreatic cancer cells exposed to Coenzyme Q10 alone or with fatty acid metabolism inhibitors; type: cell-based; settings: for Sensitivity of cells to Coenzyme Q10 when treated in combination (reduced viability): co-treatment with named agent
From the text: Cell viability was next assessed in MIA PaCa-2 pancreatic cancer cells exposed to Coenzyme Q10 alone or in combination with the fatty acid metabolism inhibitors C75, etomoxir, trimetazidine, metformin, and the Stearoyl-CoA desaturase-1 (SCD-1) inhibitor A939572. […] SCD-1 is an endoplasmic reticulum enzyme that catalyzes the formation of the monounsaturated fatty acids oleic acid and palmitoleic acid from stearoyl-CoA and palmitoyl-CoA. Oleic acid and palmitoleic acid are major components of membrane phospholipids, cholesterol esters and alkyl-diacylglycerol. Thus SCD-1 is a key enzyme in fatty acid metabolism. Inhibition of SCD-1 results in depletion of mono-unsaturated fatty acids and reduction of lipid storage.

[3] = tested on: SKBr-3 breast cancer cells; experiment: Cell viability of SKBr-3 breast cancer cells exposed to Coenzyme Q10 alone or with fatty acid metabolism inhibitors; type: cell-based; settings: for Sensitivity of cells to Coenzyme Q10 when treated in combination (shift of Coenzyme Q10 dose-response curve): SkBr-3, co-treatment with named agent
Description: as §1, §2

[4] = tested on: fatty acid metabolism genes FASN, CPT1, ACSL1 and DGAT1; experiment: mRNA expression of fatty acid metabolism genes in MDA-MB231 cells treated with Coenzyme Q10; type: cell-based, human; settings: Coenzyme Q10 alone
From the text: FASN catalyzes the synthesis of the fatty acid palmitate (C16:0, a long-chain saturated fatty acid) from acetyl-CoA and malonyl-CoA, in the presence of NADPH. CPT-1 is a mitochondrial enzyme responsible for the formation of acyl carnitines by catalyzing the transfer of the acyl group of a long-chain fatty acyl-CoA from coenzyme A to l-carnitine. CPT-1 mediated formation of acyl carnitine allows for subsequent movement of the acyl carnitine from the cytosol into the intermembrane space of mitochondria. ACSL1 activates the degradation of complex fatty acids. Specifically, this enzyme catalyzes the formation of fatty acyl-CoA by a two-step process proceeding through an adenylated intermediate. DGAT1 catalyzes the formation of triglycerides from diacylglycerol and Acyl-CoA. The reaction catalyzed by DGAT is considered the terminal and only committed step in triglyceride synthesis and to be essential for the formation of adipose tissue.

[5] = tested on: MDA-MB231 breast cancer cells; experiment: Free glycerol, DAG and TAG content in MDA-MB231 cells treated with Coenzyme Q10; type: cell-based, human; settings: Coenzyme Q10 treatment
From the text: FIGS. 6B and 6C show diacylglyceride (DAG) (B), and triacylglyceride (TAG) content (C) in MDA-MB231 breast cancer cells treated with Coenzyme Q10.
To further evaluate the effect of Coenzyme Q10 on cancer cell lipid composition, structural lipidomic analysis was used to assess the metabolic fate of the lipid components of the Coenzyme Q10 formulation itself, such as DMPC. DMPC is a 14:0 lipid which is not found endogenously in human cells. Accordingly, it was possible to distinguish between DMPC-containing species based on the length of the fatty acid chains, e.g. 28:0 DAG and 42:0 TAG are not found endogenously. […] Accordingly, cancer cells treated with lipid-containing formulations may be especially sensitive to fatty acid metabolism inhibitors, due to the increased fatty acid metabolism activity resulting from storage and degradation of the lipid formulation components.

Row | SMILES | Sensitivity of cells to Coenzyme Q10 when treated in combination (shift of Coenzyme Q10 dose-response curve) [1] | Sensitivity of cells to Coenzyme Q10 when treated in combination (reduced viability) [2] | Sensitivity of cells to Coenzyme Q10 when treated in combination (shift of Coenzyme Q10 dose-response curve) [3] | further results
1 | CN(C)C(=N)N=C(N)N [Metformin] | did not alter cytotoxic responses to Coenzyme Q10 | more sensitive to Coenzyme Q10 | did not alter cytotoxic responses to Coenzyme Q10 | Cell viability ([2]; Coenzyme Q10 and 0.5 mM metformin): lower viability than cells treated with Coenzyme Q10 alone; Cell viability ([2]; Coenzyme Q10 and 1 mM or 5 mM metformin): lower viability than cells treated with Coenzyme Q10 and 0.5 mM metformin
2 | COC1=C(OC)C(=O)C(C/C=C(\C)CC/C=C(\C)CC/C=C(\C)CC/C=C(\C)CC/C=C(\C)CC/C=C(\C)CC/C=C(\C)CC/C=C(\C)CC/C=C(\C)CCC=C(C)C)=C(C)C1=O [Coenzyme Q10] | – | – | – | EC50 ([1]; EC50 of Coenzyme Q10 (4% nanosuspension) alone or plus named inhibitor, inhibitor concentration not in table (FIGS. 1-4: C75 5 μM, Etomoxir 50 μM, Trimetazidine 375 μM, metformin 500 μM)): 165 µM; EC50 ([2]; Coenzyme Q10 alone (A939572 experiment, FIG. 10)): 142 µM; EC50 ([2]; Coenzyme Q10 alone (metformin experiment, FIG. 8)): 261 µM; EC50 ([2]; Coenzyme Q10 alone or with Etomoxir 100 μM, C75 10 μM or Trimetazidine 250 μM (FIG. 9)): 284 µM; mRNA expression of FASN, CPT-1, ACSL1 and DGAT1 [4]: dose- and time-dependent increase in mRNA expression; EC50 ([3]; EC50 of Coenzyme Q10 (4% nanosuspension) alone or plus named inhibitor, inhibitor concentration not in table): 599 µM; Diacylglyceride (DAG), triacylglyceride (TAG) and glycerol content [5]: accumulation of diacylglyceride (DAG), triacylglyceride (TAG) and the triglyceride backbone, glycerol
3 | C=C1C(=O)OC(CCCCCCCC)C1C(=O)O (stereo not shown) [C75] | more sensitive to Coenzyme Q10 | more sensitive to Coenzyme Q10 | more sensitive to Coenzyme Q10 | –
4 | CNC(=O)c1cccc(NC(=O)N2CCC(Oc3ccccc3Cl)CC2)c1 [A939572] | – | more sensitive to Coenzyme Q10 | – | –
5 | COc1ccc(CN2CCNCC2)c(OC)c1OC [Trimetazidine] | more sensitive to Coenzyme Q10 | more sensitive to Coenzyme Q10 | more sensitive to Coenzyme Q10 | –
6 | CCOC(=O)C1(CCCCCCOc2ccc(Cl)cc2)CO1 (stereo not shown) [Etomoxir, 2-(6-(4-chlorophenoxy)-hexyl)-oxirane-2-carboxylic acid ethyl ester] | more sensitive to Coenzyme Q10 | more sensitive to Coenzyme Q10 | more sensitive to Coenzyme Q10 | –
